ChEMBL document CHEMBL2157957, “Strategies to mitigate the bioactivation of 2-anilino-7-aryl-pyrrolo[2,1-f][1,2,4]triazines: identification of orally bioavailable, efficacious ALK inhibitors” (J Med Chem, 2012)
One block for each compound: values may come before it.

What was measured:
[1] = biological target: ALK tyrosine kinase receptor (Homo sapiens, UniProt Q9UM73); experiment: Inhibition of GST-tagged human ALK cytoplasmic domain (1058-1620) expressed in Sf21 insect cells using GST-tagged human recombinant PLC-gamma/substrate by ELISA
Chain of ALK tyrosine kinase receptor (Q9UM73 whole entry, the tested form may be a part): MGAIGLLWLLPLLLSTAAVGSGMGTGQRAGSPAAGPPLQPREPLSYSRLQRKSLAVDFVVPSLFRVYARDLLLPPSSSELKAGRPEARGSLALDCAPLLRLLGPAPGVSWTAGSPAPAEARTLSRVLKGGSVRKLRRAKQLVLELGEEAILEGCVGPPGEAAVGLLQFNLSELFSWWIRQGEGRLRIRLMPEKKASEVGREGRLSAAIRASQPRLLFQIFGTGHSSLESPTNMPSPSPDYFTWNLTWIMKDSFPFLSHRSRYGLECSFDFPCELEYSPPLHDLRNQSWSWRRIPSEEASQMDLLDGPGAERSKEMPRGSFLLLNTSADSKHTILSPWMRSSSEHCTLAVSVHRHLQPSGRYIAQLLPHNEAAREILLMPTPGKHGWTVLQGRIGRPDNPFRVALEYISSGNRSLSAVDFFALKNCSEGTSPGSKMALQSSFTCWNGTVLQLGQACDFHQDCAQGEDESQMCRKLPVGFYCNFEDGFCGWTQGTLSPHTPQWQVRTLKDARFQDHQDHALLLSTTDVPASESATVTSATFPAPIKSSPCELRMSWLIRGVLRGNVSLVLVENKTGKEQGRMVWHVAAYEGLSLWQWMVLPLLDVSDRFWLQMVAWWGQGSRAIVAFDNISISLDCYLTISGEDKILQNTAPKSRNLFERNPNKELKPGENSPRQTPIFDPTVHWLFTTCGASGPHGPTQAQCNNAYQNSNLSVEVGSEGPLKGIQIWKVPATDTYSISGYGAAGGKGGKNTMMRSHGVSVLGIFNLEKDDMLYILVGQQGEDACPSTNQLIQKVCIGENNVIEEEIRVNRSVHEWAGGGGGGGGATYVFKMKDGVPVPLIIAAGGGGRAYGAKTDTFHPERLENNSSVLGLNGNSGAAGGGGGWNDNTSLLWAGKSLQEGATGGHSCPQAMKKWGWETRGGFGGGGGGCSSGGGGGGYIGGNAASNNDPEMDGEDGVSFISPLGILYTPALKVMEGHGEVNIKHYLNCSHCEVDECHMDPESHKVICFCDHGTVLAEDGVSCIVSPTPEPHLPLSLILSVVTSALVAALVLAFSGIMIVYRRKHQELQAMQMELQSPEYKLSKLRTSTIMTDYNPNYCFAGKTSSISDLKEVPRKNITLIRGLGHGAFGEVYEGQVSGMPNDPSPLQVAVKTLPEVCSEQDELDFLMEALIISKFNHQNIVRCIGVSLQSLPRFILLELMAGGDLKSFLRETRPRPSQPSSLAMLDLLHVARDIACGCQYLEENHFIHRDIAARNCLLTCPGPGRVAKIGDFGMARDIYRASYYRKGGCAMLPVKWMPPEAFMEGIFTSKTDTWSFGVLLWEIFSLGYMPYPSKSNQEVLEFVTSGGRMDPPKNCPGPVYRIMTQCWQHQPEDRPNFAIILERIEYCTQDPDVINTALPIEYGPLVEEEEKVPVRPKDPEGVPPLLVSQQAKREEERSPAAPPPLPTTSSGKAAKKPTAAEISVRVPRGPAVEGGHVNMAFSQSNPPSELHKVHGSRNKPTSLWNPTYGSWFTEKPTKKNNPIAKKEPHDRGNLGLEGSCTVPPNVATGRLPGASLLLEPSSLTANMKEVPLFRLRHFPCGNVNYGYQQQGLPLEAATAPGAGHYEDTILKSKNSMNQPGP

[2] = Half life in monkey liver microsomes at 0.5 uM preincubated for 10 mins before NADPH and UDPGA challenge; format: ADME, Macaca mulatta, Microsome; conditions: rhesus monkey
[3] = Half life in human liver microsomes at 0.5 uM preincubated for 10 mins before NADPH and UDPGA challenge; format: ADME, Microsome
Insulin receptor = Insulin receptor (Homo sapiens, UniProt P06213); experiment: Inhibition of IR
Chain of Insulin receptor (P06213 28-758 limits assumed): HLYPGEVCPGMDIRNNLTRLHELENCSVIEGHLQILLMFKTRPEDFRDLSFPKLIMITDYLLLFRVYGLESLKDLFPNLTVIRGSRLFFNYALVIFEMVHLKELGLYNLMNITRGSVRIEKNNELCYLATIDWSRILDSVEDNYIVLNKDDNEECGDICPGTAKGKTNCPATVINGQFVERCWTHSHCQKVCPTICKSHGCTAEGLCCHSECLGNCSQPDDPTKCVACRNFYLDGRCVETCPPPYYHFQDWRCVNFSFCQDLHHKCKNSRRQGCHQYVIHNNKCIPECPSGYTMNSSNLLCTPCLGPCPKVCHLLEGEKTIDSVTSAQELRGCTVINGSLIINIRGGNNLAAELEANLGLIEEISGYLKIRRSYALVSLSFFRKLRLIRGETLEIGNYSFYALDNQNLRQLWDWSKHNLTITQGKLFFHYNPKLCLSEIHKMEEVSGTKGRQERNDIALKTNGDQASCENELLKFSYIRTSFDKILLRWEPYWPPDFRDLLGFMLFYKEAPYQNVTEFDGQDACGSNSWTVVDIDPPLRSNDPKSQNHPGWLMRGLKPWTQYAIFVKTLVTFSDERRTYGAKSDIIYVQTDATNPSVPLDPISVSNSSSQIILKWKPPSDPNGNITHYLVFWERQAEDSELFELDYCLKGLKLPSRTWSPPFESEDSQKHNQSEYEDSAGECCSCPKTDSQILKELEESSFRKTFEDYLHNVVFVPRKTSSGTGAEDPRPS
Chain of Insulin receptor (P06213 763-1382 limits assumed): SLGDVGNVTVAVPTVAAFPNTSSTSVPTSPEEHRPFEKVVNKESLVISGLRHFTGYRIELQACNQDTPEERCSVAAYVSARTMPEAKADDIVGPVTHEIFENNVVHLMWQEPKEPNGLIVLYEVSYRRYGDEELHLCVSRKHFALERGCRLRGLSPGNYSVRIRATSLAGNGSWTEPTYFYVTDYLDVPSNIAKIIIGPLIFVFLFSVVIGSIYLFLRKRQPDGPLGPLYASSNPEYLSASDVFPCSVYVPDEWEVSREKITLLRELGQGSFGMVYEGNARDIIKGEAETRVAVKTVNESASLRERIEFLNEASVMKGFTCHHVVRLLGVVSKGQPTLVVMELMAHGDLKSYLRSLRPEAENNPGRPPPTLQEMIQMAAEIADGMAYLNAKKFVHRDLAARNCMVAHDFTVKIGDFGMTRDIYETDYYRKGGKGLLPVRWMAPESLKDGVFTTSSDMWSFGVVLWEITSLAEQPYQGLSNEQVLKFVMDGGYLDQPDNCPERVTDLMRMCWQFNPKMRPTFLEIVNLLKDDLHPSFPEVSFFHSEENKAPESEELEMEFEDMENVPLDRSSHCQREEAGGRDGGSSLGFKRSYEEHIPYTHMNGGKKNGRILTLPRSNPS

[4] = biological target: NPM/ALK (Nucleophosmin/ALK tyrosine kinase receptor) (Homo sapiens, UniProt Q9UM73); experiment: Inhibition of human NPM-ALK phosphorylation using 4-MeUP substrate by cell based assay
Chain of NPM/ALK (Nucleophosmin/ALK tyrosine kinase receptor) (Q9UM73 whole entry): as the sequence (Q9UM73 whole entry, the tested form may be a part) above
Chain of NPM/ALK (Nucleophosmin/ALK tyrosine kinase receptor) (P06748 whole entry, further chain): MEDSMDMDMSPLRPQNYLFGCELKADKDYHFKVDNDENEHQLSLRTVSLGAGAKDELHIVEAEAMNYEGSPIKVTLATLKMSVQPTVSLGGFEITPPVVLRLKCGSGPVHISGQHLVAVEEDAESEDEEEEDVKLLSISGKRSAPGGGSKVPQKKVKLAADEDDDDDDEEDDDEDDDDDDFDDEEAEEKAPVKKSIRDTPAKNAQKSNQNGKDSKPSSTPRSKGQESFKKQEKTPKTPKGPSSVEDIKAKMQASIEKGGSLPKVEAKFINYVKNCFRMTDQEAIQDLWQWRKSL

[5] = Half life in Sprague-Dawley rat liver microsomes at 0.5 uM preincubated for 10 mins before NADPH and UDPGA challenge; format: ADME, Microsome
[6] = Half life in CD1 mouse liver microsomes at 0.5 uM preincubated for 10 mins before NADPH and UDPGA challenge; format: ADME, Microsome
[7] = Half life in Sprague-Dawley rat at 1 mg/kg, iv; format: ADME, organism-based; design: dose 1 mg/kg, route intravenous; conditions: in vivo
[8] = Clearance in Sprague-Dawley rat at 1 mg/kg, iv; format: ADME, organism-based; design: dose 1 mg/kg, route intravenous; conditions: in vivo
[9] = Oral bioavailability in Sprague-Dawley rat at 5 mg/kg; format: ADME, organism-based; conditions: in vivo
[10] = Half life in rat liver S9 fraction; format: ADME, subcellular
Mus musculus [11] = experiment: Inhibition of NPM-ALK phosphorylation in human SUP-M2 cells xenografted in SCID mouse at 30 mg/kg, po administered as single dose measured 12 hrs post dose; format: functional; conditions: SUP-M2, 12 h
[12] = AUC (0 to t) in Sprague-Dawley rat at 1 mg/kg, iv; format: ADME, organism-based; design: dose 1 mg/kg, route intravenous; conditions: plasma
[13] = Volume of distribution in Sprague-Dawley rat at 1 mg/kg, iv; format: ADME, organism-based; design: dose 1 mg/kg, route intravenous; conditions: in vivo
[14] = Cmax in Sprague-Dawley rat at 5 mg/kg, po; format: ADME, organism-based; design: dose 5 mg/kg, route oral; conditions: in vivo
[15] = Tmax in Sprague-Dawley rat at 5 mg/kg, po; format: ADME, organism-based; design: dose 5 mg/kg, route oral; conditions: in vivo
[16] = AUC (0 to t) in Sprague-Dawley rat at 5 mg/kg, po; format: ADME, organism-based; design: dose 5 mg/kg, route oral; conditions: plasma
[17] = Half life in SCID mouse at 1 mg/kg, iv; format: ADME, organism-based; design: dose 1 mg/kg, route intravenous; conditions: in vivo
[18] = AUC (0 to t) in SCID mouse at 1 mg/kg, iv; format: ADME, organism-based; design: dose 1 mg/kg, route intravenous; conditions: plasma
[19] = Volume of distribution in SCID mouse at 1 mg/kg, iv; format: ADME, organism-based; design: dose 1 mg/kg, route intravenous; conditions: in vivo
[20] = Clearance in SCID mouse at 1 mg/kg, iv; format: ADME, organism-based; design: dose 1 mg/kg, route intravenous; conditions: in vivo
[21] = Cmax in SCID mouse at 10 mg/kg, po; format: ADME, organism-based; design: dose 10 mg/kg, route oral; conditions: in vivo
[22] = Tmax in SCID mouse at 10 mg/kg, po; format: ADME, organism-based; design: dose 10 mg/kg, route oral; conditions: in vivo
[23] = AUC (0 to t) in SCID mouse at 10 mg/kg, po; format: ADME, organism-based; design: dose 10 mg/kg, route oral; conditions: plasma
[24] = Oral bioavailability in SCID mouse at 10 mg/kg; format: ADME, organism-based; conditions: in vivo
[25] = Half life in SCID mouse at 10 mg/kg, po; format: ADME, organism-based; design: dose 10 mg/kg, route oral; conditions: in vivo
[26] = Plasma concentration in human SUP-M2 cells xenografted SCID mouse at 30 mg/kg, po administered as single dose measured 12 hrs post dose; format: ADME, organism-based; design: dose 30 mg/kg, route oral
Plasma = experiment: Ratio of plasma concentration at 12 hrs to plasma concentration at 24 hrs in human SUP-M2 cells xenografted SCID mouse at 30 mg/kg, po administered as single dose; format: ADME, organism-based; design: dose 30 mg/kg, route oral; conditions: in vivo
[27] = Ratio of tumor concentration at 12 hrs to plasma concentration at 12 hrs in human SUP-M2 cells xenografted SCID mouse at 30 mg/kg, po administered as single dose; format: ADME, organism-based; design: dose 30 mg/kg, route oral
Mus musculus [28] = experiment: Toxicity in human SUP-M2 cells xenografted SCID mouse assessed as body weight loss at 30 mg/kg, po BID measured 12 days post dose; format: organism-based; design: dose 30 mg/kg, route oral; conditions: in vivo, 288 h
Mus musculus [29] = experiment: Toxicity in human SUP-M2 cells xenografted SCID mouse assessed as body weight loss at 55 mg/kg, po BID measured 12 days post dose; format: organism-based; design: dose 55 mg/kg, route oral; conditions: in vivo, 288 h
Mus musculus [30] = experiment: Toxicity in human SUP-M2 cells xenografted SCID mouse assessed as incidence of overt toxicity at 30 mg/kg, po BID measured 12 days post dose; format: organism-based; design: dose 30 mg/kg, route oral; conditions: in vivo, 288 h
Mus musculus [31] = experiment: Toxicity in human SUP-M2 cells xenografted SCID mouse assessed as incidence of overt toxicity at 55 mg/kg, po BID measured 12 days post dose; format: organism-based; design: dose 55 mg/kg, route oral; conditions: in vivo, 288 h

Structure (SMILES): COc1cc(C2CCN(CC(N)=O)CC2)ccc1Nc1ncc2ccc(-c3ccccc3C#N)n2n1
IC50 [1]: 19 nM
IC50 (Insulin receptor): 747 nM
IC50 [4]: 250 nM

Structure (SMILES): COc1ccc(N2CCN(C)CC2)cc1Nc1ncc2ccc(-c3ccccc3N(C)S(C)(=O)=O)n2n1
IC50 [1]: 28 nM

Structure (SMILES): COc1cc(C2CCN(CC(N)=O)CC2)ccc1Nc1ncc2c(O)cc(-c3ccccc3N(C)S(C)(=O)=O)n2n1
IC50 [1]: 11 nM
half-life at 0.5 µM [5]: < 5 min
half-life at 0.5 µM [2]: < 5 min
half-life at 0.5 µM [3]: < 5 min
half-life at 0.5 µM [6]: < 5 min

Structure (SMILES): COc1c(Nc2ncc3ccc(-c4ccccc4N(C)S(C)(=O)=O)n3n2)ccc(N2CCN(C[C@H](C)O)CC2)c1F
IC50 [1]: 56 nM

Structure (SMILES): C[C@H](O)CN1CCN(c2cc(F)c(Nc3ncc4ccc(-c5ccccc5N(C)S(C)(=O)=O)n4n3)cc2F)CC1
IC50 [1]: 91 nM

Structure (SMILES): COc1ccc(-c2ccc3cnc(Nc4ccc(C5CCN(CC(N)=O)CC5)cc4OC)nn23)c(OC)c1
IC50 [1]: 12 nM
IC50 (Insulin receptor): 2970 nM
IC50 [4]: 500 nM

Continued, in another order:

IC50 [1]: 10 nM
half-life at 0.5 µM [2]: < 12 min
half-life at 0.5 µM [3]: < 12 min
IC50 (Insulin receptor): 161 nM
IC50 [4]: 100 nM
Structure (SMILES): CNC(=O)CN1CCC(c2ccc(Nc3ncc4ccc(-c5ccccc5OC)n4n3)c(OC)c2)CC1

IC50 [1]: 10 nM
half-life at 0.5 µM [5]: 22 min
half-life at 0.5 µM [2]: < 5 min
half-life at 0.5 µM [3]: 7 min
IC50 [4]: 40 nM
half-life at 0.5 µM [6]: > 40 min
Structure (SMILES): COc1cc(C2CCNCC2)ccc1Nc1ncc2ccc(-c3ccccc3N(C)S(C)(=O)=O)n2n1

IC50 [1]: 11 nM
half-life at 0.5 µM [5]: > 40 min
half-life [7]: 150 min
clearance [8]: 32 mL/min/kg
bioavailability [9]: 15%
IC50 (Insulin receptor): 335 nM
half-life [10]: > 40 min
IC50 [4]: 200 nM
Structure (SMILES): COc1cc(C2CCN(C(=O)C3CCN3)CC2)ccc1Nc1ncc2ccc(-c3ccccc3OC)n2n1 (racemic)

IC50 [1]: 6 nM
half-life at 0.5 µM [5]: 31 min
half-life at 0.5 µM [2]: 6 min
half-life at 0.5 µM [3]: 18 min
half-life [7]: > 120 min
clearance [8]: ≤ 4 mL/min/kg
bioavailability [9]: 24%
IC50 [4]: 70 nM
half-life at 0.5 µM [6]: > 40 min
Structure (SMILES): COc1cc(C2CCN(CC(N)=O)CC2)ccc1Nc1ncc2c(C)cc(-c3ccccc3N(C)S(C)(=O)=O)n2n1
inhibition in vivo at 30 mg/kg (Mus musculus [11]): < 75%

IC50 [1]: 6 nM
half-life at 0.5 µM [5]: > 40 min
half-life at 0.5 µM [2]: > 40 min
half-life at 0.5 µM [3]: > 40 min
half-life [7]: 204 min
clearance [8]: 12 mL/min/kg
bioavailability [9]: 43%
IC50 (Insulin receptor): 222 nM
AUC(0-t) [12]: 1110 ng·h/mL
Vd [13]: 3.5 L/kg
Cmax [14]: 392 ng/mL
Tmax [15]: 360 min
AUC(0-t) [16]: 1760 ng·h/mL
half-life [17]: 360 min
AUC(0-t) [18]: 7550 ng·h/mL
Vd [19]: 1.1 L/kg
clearance [20]: 2 mL/min/kg
Cmax [21]: 3470 ng/mL
Tmax [22]: 120 min
AUC(0-t) [23]: 42500 ng·h/mL
bioavailability [24]: 56%
half-life [25]: 264 min
concentration at 12 h [26]: 6 µM
Ratio (Plasma): 7
Kp at 12 h [27]: 2
IC50 [4]: 100 nM
half-life at 0.5 µM [6]: > 40 min
Structure (SMILES): COc1cc(C2CCN(CC(N)=O)CC2)ccc1Nc1ncc2ccc(-c3ccccc3OC)n2n1
inhibition in vivo at 30 mg/kg (Mus musculus [11]): 80%
Activity (Mus musculus [28]): Non-toxic
Activity (Mus musculus [29]): Non-toxic
Activity (Mus musculus [30]): Non-toxic
Activity (Mus musculus [31]): Non-toxic

IC50 [1]: 3 nM
half-life at 0.5 µM [5]: > 40 min
half-life [7]: 84 min
clearance [8]: 62 mL/min/kg
bioavailability [9]: 16%
IC50 (Insulin receptor): 149 nM
half-life [10]: > 40 min
IC50 [4]: 80 nM
Structure (SMILES): COc1cc(C2CCN(CC(O)CF)CC2)ccc1Nc1ncc2ccc(-c3ccccc3OC)n2n1 (racemic)
